A value given as a limit tells only on which side of the number the result lay.

Experimental findings from US10196364B2, “Pyrimidine carboxamides as sodium channel blockers” (Purdue Pharma L.P., priority 2013, dated 2019) are described below.

Sequence of hNav1.7 (Q15858 1-1977 isoform Q15858-3): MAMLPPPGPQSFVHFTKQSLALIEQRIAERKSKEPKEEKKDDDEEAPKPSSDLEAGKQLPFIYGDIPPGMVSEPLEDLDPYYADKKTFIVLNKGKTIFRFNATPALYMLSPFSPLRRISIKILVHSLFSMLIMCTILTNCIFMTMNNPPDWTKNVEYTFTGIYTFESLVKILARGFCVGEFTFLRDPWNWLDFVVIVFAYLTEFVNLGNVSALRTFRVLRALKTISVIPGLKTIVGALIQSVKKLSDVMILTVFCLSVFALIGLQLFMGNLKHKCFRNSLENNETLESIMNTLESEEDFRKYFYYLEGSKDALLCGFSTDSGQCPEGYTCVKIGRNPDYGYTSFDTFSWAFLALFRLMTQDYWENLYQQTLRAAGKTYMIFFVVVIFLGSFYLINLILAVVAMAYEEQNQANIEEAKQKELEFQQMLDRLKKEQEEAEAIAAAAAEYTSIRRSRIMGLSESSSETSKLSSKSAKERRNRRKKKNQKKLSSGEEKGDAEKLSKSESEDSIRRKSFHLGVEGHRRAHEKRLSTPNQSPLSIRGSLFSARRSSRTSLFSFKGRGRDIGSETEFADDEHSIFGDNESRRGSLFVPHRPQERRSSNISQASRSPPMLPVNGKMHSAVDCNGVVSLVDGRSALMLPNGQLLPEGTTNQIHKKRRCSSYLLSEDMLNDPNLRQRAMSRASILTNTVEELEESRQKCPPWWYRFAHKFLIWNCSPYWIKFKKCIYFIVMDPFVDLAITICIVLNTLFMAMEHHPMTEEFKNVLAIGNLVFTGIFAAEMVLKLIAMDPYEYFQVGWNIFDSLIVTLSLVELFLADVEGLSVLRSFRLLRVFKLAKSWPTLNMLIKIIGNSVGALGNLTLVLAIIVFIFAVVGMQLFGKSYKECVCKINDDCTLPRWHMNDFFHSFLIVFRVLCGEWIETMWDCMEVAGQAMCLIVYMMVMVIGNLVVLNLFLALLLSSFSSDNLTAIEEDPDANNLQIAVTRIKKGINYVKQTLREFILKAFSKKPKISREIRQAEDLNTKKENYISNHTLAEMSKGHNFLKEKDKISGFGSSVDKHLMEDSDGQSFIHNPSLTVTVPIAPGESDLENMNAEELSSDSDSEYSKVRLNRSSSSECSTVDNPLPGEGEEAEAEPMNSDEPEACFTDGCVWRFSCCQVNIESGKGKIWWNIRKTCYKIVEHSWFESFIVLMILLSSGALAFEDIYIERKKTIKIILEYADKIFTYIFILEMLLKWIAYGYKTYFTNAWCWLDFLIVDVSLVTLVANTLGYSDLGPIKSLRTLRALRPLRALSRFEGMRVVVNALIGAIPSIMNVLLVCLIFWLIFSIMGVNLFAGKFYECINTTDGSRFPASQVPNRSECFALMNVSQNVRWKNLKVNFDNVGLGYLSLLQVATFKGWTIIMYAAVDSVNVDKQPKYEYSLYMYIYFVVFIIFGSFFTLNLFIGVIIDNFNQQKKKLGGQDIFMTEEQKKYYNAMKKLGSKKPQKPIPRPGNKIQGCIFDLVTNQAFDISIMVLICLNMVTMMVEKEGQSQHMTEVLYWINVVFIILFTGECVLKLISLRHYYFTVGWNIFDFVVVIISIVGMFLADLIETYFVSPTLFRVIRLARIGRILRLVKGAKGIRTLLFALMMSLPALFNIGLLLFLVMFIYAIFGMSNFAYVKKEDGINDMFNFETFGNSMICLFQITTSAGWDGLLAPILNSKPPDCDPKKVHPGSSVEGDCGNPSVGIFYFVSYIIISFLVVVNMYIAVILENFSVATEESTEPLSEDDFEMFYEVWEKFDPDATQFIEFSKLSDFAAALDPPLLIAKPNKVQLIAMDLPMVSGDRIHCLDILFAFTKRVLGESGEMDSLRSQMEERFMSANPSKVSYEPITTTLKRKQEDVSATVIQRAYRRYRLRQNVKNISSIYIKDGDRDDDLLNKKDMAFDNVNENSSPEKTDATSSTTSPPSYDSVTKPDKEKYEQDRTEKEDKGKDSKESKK

One test addresses hNav1.7 (Homo sapiens, UniProt Q15858). Briefly: Electrophysiology (EP) whole-cell patch clamp assay in hNav1.7 expressing HEK-293 cells. It counts as cell-based. Conditions: Table 6; affinity for inactivated channels; read-out: Nav1.7 Activity (μM) EP assay Ki. Here is the method:
The hNav1.7 expressing HEK-293 cells were plated on 35 mm culture dishes pre-coated with poly-D-lysine in standard DMEM culture media (Mediatech, Inc., Herndon, Va.) and incubated in a 5% CO2 incubator at 37° C. Cultured cells were used approximately 12-48 h after plating.
On the day of experimentation, the 35 mm dish was placed on the stage of an inverted microscope equipped with a perfusion system that continuously perfuses the culture dish with fresh recording media. A gravity driven superfusion system was used to apply test solutions directly to the cell under evaluation. This system consists of an array of glass pipette glass connected to a motorized horizontal translator. The outlet of the shooter was positioned approximately 100 μm from the cell of interest.
Whole cell currents were recorded using the whole-cell patch clamp configuration using an Axopatch 200B amplifier (Axon Instruments, Foster City Calif.), 1322A A/D converter (Axon Instruments) and pClamp software (v. 8; Axon Instruments) and stored on a personal computer. Gigaseals were formed and the whole-cell configuration was established in voltage clamp mode, and membrane currents generated by hNav1.7 were recorded in gap-free mode. Borosilicate glass pipettes have resistance values between 1.5 and 2.0 MΩ when filled with pipette solution and series resistance (<5 MΩ) was compensated 75-80%. Signals were sampled at 50 kHz and low pass filtered at 3 kHz.
After establishing the whole-cell configuration in voltage clamp mode, two voltage protocols were run to establish: 1) the holding potential; and 2) the test potential for each cell.
To determine a membrane potential at which the majority of channels are in the resting state, a standard steady-state inactivation (SSIN) protocol was run using 100 ms prepulses×10 mV depolarizing steps. The holding potential for testing resting block (Vh1) was 20 mV more hyperpolarized than the first potential where inactivation is observed with the inactivation protocol.
From this holding potential a standard I-V protocol was run to determine the potential at which the maximal current (Imax) was elicited. This potential was the test potential (Vt).
The compound testing protocol was a series of 10 ms depolarizations from the Vh1 (determined from the SSIN) to the Vt (determined from the I-V protocol) repeated every 10-15 seconds. […] Washout of the compound was attempted by superfusing with control solution once steady-state block was observed. The fractional response was calculated as follows: FR=I(after drug)/I(control), where I is the peak current amplitude and was used for estimating resting block dissociation constant, Kr: Kr=[drug]*{FR/(1−FR)}, where [drug] is the concentration of a drug.
To assess the block of inactivated channels the holding potential was depolarized such that 20-50% of the current amplitude was reduced when pulsed to the same Vt as above. The magnitude of this depolarization depends upon the initial current amplitude and the rate of current loss due to slow inactivation. This was the second holding potential (Vh2). The current reduction was recorded to determine the fraction of available channels at this potential (h). h=I@Vh2/Imax.
At this membrane voltage a proportion of channels are in the inactivated state, and thus inhibition by a blocker includes interaction with both resting and inactivated channels.
To determine the potency of the test compound on inactivated channels, a series of currents were elicited by 10 ms voltage steps from Vh2 to Vt every 10-15 seconds. After establishing a stable baseline, the low concentration of the compound was applied. Multiple cumulative concentrations may have to be applied to identify a concentration that will block between 40-60% of the current. Washout was attempted to re-establish baseline. Fractional responses were measured with respect to a projected baseline to determine Kapp. Kapp=[drug]*{FR/(1−FR)}, where [drug] is the concentration of a drug. […]
On the technique in general: The patch-clamp technique gives a direct electrical read-out from membranes.
For `NC(=O)c1cc(N[C@H]2CCNC2=O)nc(-c2ccc(Oc3cccc(F)n3)cc2)n1` [compound 134, (S)-2-(4-((6-fluoropyridin-2-yl)oxy)phenyl)-6-((2-oxopyrrolidin-3-yl)amino) pyrimidine-4-carboxamide], the Ki was 0.82 µM. Still for that read-out and setting: next, `NC(=O)c1cc(N[C@H]2CCNC2=O)nc(-c2ccc(Cc3ccc(C(F)(F)F)cn3)cc2)n1` [Cpd No. 190, (S)-6-((2-oxopyrrolidin-3-yl)amino)-2-(4-((5-(trifluoro-methyl)pyridin-2-yl)methyl)-phenyl)pyrimidine-4-carboxamide]: 0.29 µM.

The same test, now with this note: Table 6; resting block dissociation constant; read-out: Nav1.7 Activity (μM) EP assay Kr.
For the compound `NC(=O)c1cc(N[C@H]2CCNC2=O)nc(-c2ccc(Oc3cccc(F)n3)cc2)n1` [compound 134, (S)-2-(4-((6-fluoropyridin-2-yl)oxy)phenyl)-6-((2-oxopyrrolidin-3-yl)amino) pyrimidine-4-carboxamide], the Kd stood at 22.1 µM.

In a further test the target is human Nav1.7 (Homo sapiens, UniProt Q15858). Briefly: FLIPR sodium dye assay (CoroNa Green AM Na+ dye, primary fluorescence assay) in recombinant Nav1.7/HEK293 cells. It counts as cell-based. Conditions: Table 6; CoroNa Green AM Na+ dye primary fluorescence assay; read-out: Nav1.7 Activity (μM) FLIPR assay IC50.
Sequence of human Nav1.7 (Q15858 1-1977 isoform Q15858-3): as above
Turning to `NC(=O)c1cc(N[C@H]2CCNC2=O)nc(-c2ccc(Oc3cccc(F)n3)cc2)n1` [compound 134, (S)-2-(4-((6-fluoropyridin-2-yl)oxy)phenyl)-6-((2-oxopyrrolidin-3-yl)amino) pyrimidine-4-carboxamide], the IC50 (commonly the concentration that gives 50% inhibition) came to 2.42 µM. In the case of `NC(=O)c1cc(N[C@H]2CCNC2=O)nc(-c2ccc(Cc3ccc(C(F)(F)F)cn3)cc2)n1` [Cpd No. 190, (S)-6-((2-oxopyrrolidin-3-yl)amino)-2-(4-((5-(trifluoro-methyl)pyridin-2-yl)methyl)-phenyl)pyrimidine-4-carboxamide], the IC50 came out at 1.61 µM. Regarding `NC(=O)c1cc(N[C@H]2CCNC2=O)nc(-c2ccc(Oc3ccc(OCC(F)(F)F)nn3)cc2)n1` [compound 153, (S)-6-((2-oxopyrrolidin-3-yl)amino)-2-(4-((6-(2,2,2-trifluoroethoxy)pyridazin-3-yl)oxy)phenyl)pyrimidine-4-carboxamide], the half-inhibitory concentration (IC50) stood at 1.13 µM. The same measure, in the same setting: next, `CN(C)Cc1cc(Oc2ccc(C(F)(F)F)cc2)ccc1-c1nc(N[C@H]2CCNC2=O)cc(C(N)=O)n1` [Cpd No. 201, (S)-2-(2-((dimethylamino)-methyl)-4-(4-(trifluoromethyl)-phenoxy)phenyl)-6-((2-oxopyrrolidin-3-yl)-amino)pyrimidine-4-carboxamide]: > 20 µM; `NC(=O)c1cc(O[C@@H](CO)C(N)=O)nc(-c2ccc(Oc3ccc(C(F)(F)F)cc3)cc2)n1` [compound 121, (S)-6-((1-amino-3-hydroxy-1-oxopropan-2-yl)oxy)-2-(4-(4-(trifluoromethyl)phenoxy)phenyl)pyrimidine-4-carboxamide]: 1.01 µM. On to `NC(=O)c1cc(N[C@H]2CCNC2=O)nc(N2CC3CC2CN3Cc2ccc(F)cc2)n1` (stereo partly drawn) [compound 139, 2-(5-(4-fluorobenzyl)-2,5-diazabicyclo[2.2.1]heptan-2-yl)-6-(((S)-2-oxopyrrolidin-3-yl)amino)pyrimidine-4-carboxamide], for which the IC50 was > 20 µM.

As to `NC(=O)c1cc(N[C@H]2CCNC2=O)nc(-c2ccc(Oc3ccc(C(F)(F)F)cc3)cc2CN2CCCCC2)n1` [Cpd No. 202, (S)-6-((2-oxopyrrolidin-3-yl)amino)-2-(2-(piperidin-1-ylmethyl)-4-(4-(trifluoromethyl)-phenoxy)phenyl)pyrimidine-4-carboxamide], the half-maximal inhibitory concentration (IC50) amounted to 0.72 µM. Same read-out and setting: as for `NC(=O)c1cc(N[C@H]2CCNC2=O)nc(-c2ccc(Oc3ncc(OCC(F)(F)F)cn3)cc2)n1` [compound 148, (S)-6-((2-oxopyrrolidin-3-yl)amino)-2-(4-((5-(2,2,2-trifluoroethoxy)pyrimidin-2-yl)oxy)phenyl)pyrimidine-4-carboxamide], the figure is > 20 µM; as for `NC(=O)c1cc(N[C@H]2CCNC2=O)nc(-c2ccc(Oc3ccc(F)cc3)cc2Cn2cncn2)n1` [compound 164, (S)-2-(2-((1H-1,2,4-triazol-1-yl)methyl)-4-(4-fluorophenoxy)phenyl)-6-((2-oxopyrrolidin-3-yl)amino)pyrimidine-4-carboxamide], 1.45 µM; as for `NC(=O)c1cc(N[C@H]2CCNC2=O)nc(-c2ccc(Oc3ccc4c(c3)OCO4)cc2)n1` [compound 115, (S)-2-(4-(benzo[d][1,3]dioxol-5-yloxy)phenyl)-6-((2-oxopyrrolidin-3-yl)amino)pyrimnidine-4-carboxamide], 0.3 µM. Same read-out and setting: as for `NC(=O)c1cc(N[C@H]2CCNC2=O)nc(-c2ccc(Oc3ccc(COCC(F)(F)F)cn3)cc2)n1` [compound 145, (S)-6-((2-oxopyrrolidin-3-yl)amino)-2-(4-((5-((2,2,2-trifluoroethoxy)methyl)pyridin-2-yl)oxy)phenyl)pyrimidine-4-carboxamide], the figure is 1.38 µM; as for `COCc1cc(Oc2ccc(F)cc2)ccc1-c1nc(N[C@@H](C)C(N)=O)cc(C(N)=O)n1` [compound 130, (S)-6-((1-amino-1-oxopropan-2-yl)amino)-2-(4-(4-fluorophenoxy)-2-(methoxymethyl)phenyl)pyrimidine-4-carboxamide], 1.77 µM.

Take `NC(=O)c1cc(N[C@H]2CCNC2=O)nc(N2C3CCC2CC(Oc2ccc(C(F)(F)F)cc2)C3)n1` (stereo partly drawn) [compound 135, 6-(((S)-2-oxopyrrolidin-3-yl)amino)-2-(3-(4-(trifluoromethyl)phenoxy)-8-azabicyclo[3.2.1]octan-8-yl)pyrimidine-4-carboxamide]: the IC50 is 1.62 µM. Same read-out and setting: next, `NC(=O)c1cc(-c2ccc(Oc3ccc(OC(F)(F)F)cc3)cc2)nc(N2CCC[C@H]2C(N)=O)n1` [compound 126, (S)-2-(2-carbamoylpyrrolidin-1-yl)-6-(4-(4-(trifluoromethoxy)phenoxy)phenyl)pyrimidine-4-carboxamide]: > 20 µM. For the compound `C[C@H](Nc1cc(C(N)=O)nc(N2C3CCC2CC(Oc2ccc(F)cc2)C3)n1)C(N)=O` (stereo partly drawn) [compound 161, 6-(((S)-1-amino-1-oxopropan-2-yl)amino)-2-(3-(4-fluorophenoxy)-8-azabicyclo[3.2.1]octan-8-yl)pyrimidine-4-carboxamide], the concentration for half-maximal inhibition (IC50) was determined as 3.24 µM. Same read-out and setting: as for `NC(=O)c1cc(N[C@H]2CCNC2=O)nc(-c2ccc(Oc3ccc(C(F)(F)F)cc3C3=CCNCC3)cc2)n1` [Cpd No. 206, (S)-6-((2-oxopyrrolidin-3-yl)amino)-2-(4-(2-(1,2,3,6-tetrahydropyridin-4-yl)-4-(trifluoromethyl)phenoxy)phenyl)pyrimidine-4-carboxamide], the figure is 5.28 µM; as for `NC(=O)c1cc(N[C@H]2CCNC2=O)nc(-c2ccc(Oc3cnc(OCC(F)(F)F)cn3)cc2)n1` [compound 151, (S)-6-((2-oxopyrrolidin-3-yl)amino)-2-(4-((5-(2,2,2-trifluoroethoxy)pyrazin-2-yl)oxy)phenyl)pyrimidine-4-carboxamide], 0.35 µM. On to `Cn1ccnc1CNc1cc(C(N)=O)nc(-c2ccc(Oc3ccc(F)cc3)cc2)n1` [Cpd No. 180, 2-(4-(4-fluorophenoxy)phenyl)-6-(((1-methyl-1H-imidazol-2-yl)methyl)-amino)pyrimidine-4-carboxamide], for which the IC50 turned out to be 0.14 µM. `NC(=O)c1cc(N[C@H]2CCNC2=O)nc(N2CC3CC2CN3Cc2ccc(OC(F)(F)F)cc2)n1` (stereo partly drawn) [compound 136, 6-(((S)-2-oxopyrrolidin-3-yl)amino)-2-(5-(4-(trifluoromethoxy)benzyl)-2,5-diazabicyclo[2.2.1]heptan-2-yl)pyrimidine-4-carboxamide]: the half-inhibitory concentration (IC50) was > 20 µM. The same measure, in the same setting: as for `NC(=O)c1cc(N[C@H]2CCNC2=O)nc(-c2ccc(Oc3ccc(C(F)(F)F)nn3)cc2)n1` [compound 152, (S)-6-((2-oxopyrrolidin-3-yl)amino)-2-(4-((6-(trifluoromethyl)pyridazin-3-yl)oxy)phenyl)pyrimidine-4-carboxamide], the figure is > 20 µM; as for `NC(=O)c1cc(N[C@H]2CCNC2=O)nc(-c2ccc(Oc3ccc(C(F)(F)F)cc3)c(N3CCCCC3)c2)n1` [Cpd No. 209, (S)-6-((2-oxopyrrolidin-3-yl)amino)-2-(3-(piperidin-1-yl)-4-(4-(trifluoromethyl)phenoxy)-phenyl)pyrimidine-4-carboxamide], > 20 µM. On the same count and under the same terms, as for `Cc1cnc(Oc2ccc(-c3nc(N[C@@H](C)C(N)=O)cc(C(N)=O)n3)cc2)cn1` [Cpd No. 196, (S)-6-((1-amino-1-oxopropan-2-yl)amino)-2-(4-((5-methyl-pyrazin-2-yl)oxy)phenyl)-pyrimidine-4-carboxamide], the figure is > 20 µM.
